The source of these data is the Kinase Knowledgebase extract (Sharma et al. 2016).

Assay [1] has as its target PIK3CA (human) (UniProt P42336). Description: Inhibition of A2780 Cell Proliferation.
Assay [2] shares this target. Put plainly: Inhibition of PIK3CA Kinase Activity.

Where only a bound is given, the exact number is not on record here.

Chain of PIK3CA (human) (P42336 whole entry, looked up): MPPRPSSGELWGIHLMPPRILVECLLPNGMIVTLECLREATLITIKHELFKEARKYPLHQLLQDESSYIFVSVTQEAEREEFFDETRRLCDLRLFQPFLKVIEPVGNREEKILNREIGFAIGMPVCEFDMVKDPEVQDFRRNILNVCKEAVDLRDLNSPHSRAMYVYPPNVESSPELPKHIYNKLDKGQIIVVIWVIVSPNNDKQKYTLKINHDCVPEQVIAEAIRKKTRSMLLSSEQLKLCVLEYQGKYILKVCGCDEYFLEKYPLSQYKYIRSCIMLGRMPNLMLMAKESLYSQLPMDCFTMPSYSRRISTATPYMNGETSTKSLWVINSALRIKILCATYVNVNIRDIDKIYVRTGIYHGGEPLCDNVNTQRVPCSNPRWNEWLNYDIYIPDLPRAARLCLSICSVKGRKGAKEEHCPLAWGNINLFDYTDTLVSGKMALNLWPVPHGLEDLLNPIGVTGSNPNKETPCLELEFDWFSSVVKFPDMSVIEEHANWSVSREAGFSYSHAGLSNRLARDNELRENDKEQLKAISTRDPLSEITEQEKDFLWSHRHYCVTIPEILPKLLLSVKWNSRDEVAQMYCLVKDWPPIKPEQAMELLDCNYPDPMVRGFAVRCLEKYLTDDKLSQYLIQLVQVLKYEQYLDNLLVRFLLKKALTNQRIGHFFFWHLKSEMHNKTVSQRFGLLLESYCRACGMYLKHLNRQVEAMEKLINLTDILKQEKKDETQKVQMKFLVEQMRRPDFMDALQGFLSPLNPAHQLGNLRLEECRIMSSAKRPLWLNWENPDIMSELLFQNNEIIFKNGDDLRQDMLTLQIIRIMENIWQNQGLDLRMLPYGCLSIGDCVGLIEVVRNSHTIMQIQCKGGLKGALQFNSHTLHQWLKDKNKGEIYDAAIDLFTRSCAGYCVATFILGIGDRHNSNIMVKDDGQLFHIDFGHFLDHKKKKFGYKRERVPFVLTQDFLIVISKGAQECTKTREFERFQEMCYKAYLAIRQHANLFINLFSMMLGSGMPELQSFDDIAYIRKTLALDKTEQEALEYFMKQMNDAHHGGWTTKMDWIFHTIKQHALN

For the molecule `CCN1CCN(CCCC(=O)Nc2cn3cc(-c4cnc(N)c(C(F)(F)F)c4)ccc3n2)CC1`, at PIK3CA (human) [1], the concentration for a half-maximal effect (EC50) was less than 10 µM. Moreover, at PIK3CA (human) [2], the 50% inhibitory concentration (IC50) was less than 1000 nM.
The like results for `Nc1ncc(-c2ccc3nc(NC(=O)N4CCCC4c4ccccn4)cn3c2)cc1C(F)(F)F` (stereo unspecified) were, in that order, less than 25 µM and less than 1000 nM.
The matching figures for `CC(=O)Nc1nc2ccc(-c3cnc(N)c(C(=O)N4CCOCC4)c3)cc2s1`: less than 10 µM and less than 1000 nM.
`Nc1ccc(-c2ccc3nc(NC(=O)OCCN4CCOCC4)sc3c2)cn1` showed an EC50 at PIK3CA (human) [1] of less than 25 µM. Further, at PIK3CA (human) [2], the IC50 is less than 1000 nM.
The matching figures for `Nc1ncc(-c2ccc3nc(NC(=O)N4CC[C@H](O)C4)cn3c2)cc1C(F)(F)F`: less than 10 µM and less than 1000 nM.
Turning to `Nc1ncc(-c2ccc3nc(NC(=O)C(F)(F)F)cn3c2O)cc1C(F)(F)F`, the EC50 at PIK3CA (human) [1] was less than 25 µM. This molecule had an IC50 at PIK3CA (human) [2] of less than 10000 nM.
The matching figures for `CC(=O)Nc1cn2cc(-c3cnc(N)c(-c4ccc(C(F)(F)F)cc4)c3)ccc2n1`: less than 1 µM and less than 1000 nM.
The matching figures for `Nc1ncc(-c2ccc3nc(NC(=O)C4CNC4)cn3n2)cc1C(F)(F)F`: less than 10 µM and less than 1000 nM.
The matching figures for `NCC(=O)Nc1cn2cc(-c3cnc(N)c(C(F)(F)F)c3)ccc2n1`: less than 10 µM and less than 1000 nM.
On PIK3CA (human) [1], `CNC(=O)Nc1nc2ccc(-c3ccc(N)nc3)cc2s1` yielded an EC50 of less than 10 µM. The molecule further came in with an IC50 at PIK3CA (human) [2] of less than 1000 nM.
The like results for `Nc1ncc(-c2ccc3nc(NC(=O)CCCn4ccnc4)cn3c2)cc1C(F)(F)F` were, in that order, less than 10 µM and less than 1000 nM.
On PIK3CA (human) [1], `COCC(=O)Nc1cn2cc(-c3cnc(N)c(OCC(F)(F)F)n3)ccc2n1` showed an EC50 of less than 1 µM. This molecule yielded a 50% inhibitory concentration (IC50) at PIK3CA (human) [2] of less than 1000 nM.
The like results for `CC(=O)Nc1cn2nc(-c3cnc(N)c(-c4ccccc4OC(F)(F)F)c3)ccc2n1` were, in that order, less than 1 µM and less than 1000 nM.
For the molecule `COc1cc(-c2ccc3nc(NC(C)=O)c(Br)n3c2)cnc1N`, on PIK3CA (human) [1], the half-maximal effective concentration (EC50) was less than 10 µM. In addition, on PIK3CA (human) [2], the half-inhibitory concentration (IC50) was less than 1000 nM.
The matching figures for `NCC(=O)Nc1cn2nc(-c3cnc(N)c(C(F)(F)F)c3)ccc2n1`: less than 1 µM and less than 1000 nM.
With `CC(=O)Nc1cn2cc(-c3cnc(N)c(OC4CN(C(=O)OC(C)(C)C)C4)n3)ccc2n1`, at PIK3CA (human) [1], the EC50 is less than 1 µM. This molecule also registered an IC50 on PIK3CA (human) [2] of less than 1000 nM.
For `COC(=O)Nc1cn2cc(-c3cnc(N)c(C(F)(F)F)c3)ccc2n1`, the concentration for a half-maximal effect (EC50) on PIK3CA (human) [1] is less than 10 µM. In addition, the IC50 at PIK3CA (human) [2] was less than 1000 nM.
The like results for `CC(=O)Nc1cn2cc(-c3cnc(N)c(C=NNc4ccccc4)c3)ccc2n1` were, in that order, less than 1 µM and less than 1000 nM.
The matching figures for `Nc1ncc(-c2ccc3nc(NC(=O)N4CCC(C(=O)O)C4)cn3c2)cc1C(F)(F)F` (stereo unspecified): less than 25 µM and less than 1000 nM.
The matching figures for `CCC(=O)Nc1cn2nc(-c3cnc(N)c(C(F)(F)F)c3)ccc2n1`: less than 1 µM and less than 1000 nM.
In the case of `CC(=O)Nc1cn2cc(-c3cnc(N)c(OC4CCN(C)CC4)n3)ccc2n1`, the EC50 on PIK3CA (human) [1] was less than 25 µM. Besides, the half-inhibitory concentration (IC50) against PIK3CA (human) [2] is less than 10000 nM.
`Nc1ncc(-c2ccc3nc(NC(=O)CN4CCCCC4)cn3c2)nc1OCC(F)(F)F`: the EC50 on PIK3CA (human) [1] is less than 1 µM. At PIK3CA (human) [2], this molecule showed a concentration for half-maximal inhibition (IC50) of less than 1000 nM.
The matching figures for `CC(=O)Nc1cn2nc(-c3cnc(N)c(-c4ccc(C(F)(F)F)cc4)c3)ccc2n1`: less than 1 µM and less than 1000 nM.
In turn, `NC(=O)N1CC[C@H]1C(=O)Nc1cn2cc(-c3cnc(N)c(C(F)(F)F)c3)ccc2n1` showed a concentration giving a half-maximal response (EC50) on PIK3CA (human) [1] of less than 25 µM. The 50% inhibitory concentration (IC50) against PIK3CA (human) [2] is less than 1000 nM.
As for `CC(=O)Nc1cn2cc(-c3cnc(N)c(OC4CCC4)n3)ccc2n1`, on PIK3CA (human) [1], the EC50 was less than 1 µM. The molecule also showed an IC50 against PIK3CA (human) [2] of less than 1000 nM.
Consider `CCOc1nc(-c2ccc3nc(NC(C)=O)cn3n2)cnc1N`, for which the EC50 on PIK3CA (human) [1] was less than 10 µM. At PIK3CA (human) [2], this molecule registered an IC50 of less than 1000 nM.
Regarding `CCN1CC[C@@H](OCC(=O)Nc2cn3cc(-c4cnc(N)c(C(F)(F)F)c4)ccc3n2)C1`, the EC50 on PIK3CA (human) [1] was less than 10 µM. In addition, at PIK3CA (human) [2], the IC50 was less than 1000 nM.
The like results for `CC(=O)Nc1cn2cc(-c3cnc(N)c(C(=O)N4CCNCC4)c3)ccc2n1` were, in that order, less than 25 µM and less than 1000 nM.
`Nc1ccc(-c2ccc3nc(NC(=O)CCCN4CCOCC4)sc3c2)cn1`: the EC50 at PIK3CA (human) [1] is less than 25 µM. On PIK3CA (human) [2], this molecule showed an IC50 of less than 1000 nM.
The like results for `CC(=O)Nc1ccc(-c2c(NC(C)=O)nc3ccc(-c4cnc(N)c(C(F)(F)F)c4)cn23)cc1` were, in that order, less than 25 µM and less than 1000 nM.
The like results for `CC(=O)Nc1cn2nc(-c3cnc(N)c(CN4CCCC4)c3)ccc2n1` were, in that order, less than 10 µM and less than 1000 nM.
The like results for `Nc1ncc(-c2ccc3nc(NC(=O)c4cccc(Cl)c4)cn3c2)cc1C(F)(F)F` were, in that order, less than 10 µM and less than 1000 nM.
The molecule `CC(C)(C)OC(=O)N1CCC[C@H]1C(=O)Nc1cn2nc(-c3cnc(N)c(C(F)(F)F)c3)ccc2n1` had an EC50 on PIK3CA (human) [1] of less than 25 µM. The molecule further yielded an IC50 on PIK3CA (human) [2] of less than 1000 nM.
